Test results published in BindingDB's records for patent WO2022109580 (JANSSEN PHARMACEUTICA NV, 2022).
pIC50: −log10 of the molar value.

Biological target: T1, Non-receptor tyrosine-protein kinase TYK2 [556-871] (Homo sapiens, UniProt P29597)
T1 construct: 556-871
Test: Probe Displacement Assay
Description: The probe displacement assay is conducted as follows: In a 384-well plate, test compound along with recombinantly expressed His-tagged protein corresponding to amino acids 556-871 of human TYK2 (sequence shown below) at 5 nM, 33 nM probe (BB, preparation described below) and 0.33 mg/mL Yttrium oxide (YOx) His-capture SPA beads (PerkinElmer, RPNQ0276) in IX PBS containing 10 mM MgCl2, 0.1 mg/mL BSA, 0.1 mM TCEP, 0.005% Tween-20, and 1% DMSO (final concentration) were incubated for 10 hours at room temperature. The amount of radiolabeled probe bound to TYK2 was then quantified using a ViewLux Microplate Imager, and the fraction bound by the test compound calculated by comparison to wells containing scale references for 0% and 100% probe displacement. The IC50 value is defined as the concentration of test compound required to inhibit radiolabeled probe binding by 50%.

T1 sequence (P29597 556-871): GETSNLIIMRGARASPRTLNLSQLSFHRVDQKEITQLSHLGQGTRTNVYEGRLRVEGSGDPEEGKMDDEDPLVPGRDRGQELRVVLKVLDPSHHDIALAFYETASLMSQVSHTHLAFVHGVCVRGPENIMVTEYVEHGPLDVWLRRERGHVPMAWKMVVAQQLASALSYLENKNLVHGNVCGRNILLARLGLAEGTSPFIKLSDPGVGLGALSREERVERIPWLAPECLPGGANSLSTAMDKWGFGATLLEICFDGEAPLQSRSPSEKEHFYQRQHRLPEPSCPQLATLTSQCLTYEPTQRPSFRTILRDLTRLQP

Row | Structure (SMILES) | pIC50
1 | CO[C@@]1(c2cc(C)cc(-n3nc(-c4cnn(C)c4)c4cnc(NC(N)=O)cc43)n2)CCOC1 [WO2022109580, Example 1] | 8.70
2 | CO[C@]1(c2cc(C)cc(-n3nc(-c4cnn(C)c4)c4cnc(NC(N)=O)cc43)n2)CCOC1 [WO2022109580, Example 2] | 8.40
3 | CO[C@@]1(c2cc(C)cc(-n3nc(-c4cnoc4)c4cnc(NC(N)=O)cc43)n2)CCOC1 [WO2022109580, Example 3] | 9.00
4 | CO[C@]1(c2cc(C)cc(-n3nc(-c4cnoc4)c4cnc(NC(N)=O)cc43)n2)CCOC1 [WO2022109580, Example 4] | 8.70
5 | CO[C@]1(c2cc(C)cc(-n3nc(C)c4cnc(NC(N)=O)cc43)n2)CCOC1 [WO2022109580, Example 6] | 8.10
6 | COCCOc1cc(-n2nc(C)c3cnc(NC(N)=O)cc32)nc([C@]2(OC)CCOC2)c1 [WO2022109580, Example 9] | 8.70
7 | CO[C@]1(c2cc(OC[C@@H](C)O)cc(-n3nc(C)c4cnc(NC(N)=O)cc43)n2)CCOC1 [WO2022109580, Example 12] | 8.22
8 | CO[C@]1(c2cc(OCC3COC3)cc(-n3nc(C)c4cnc(NC(N)=O)cc43)n2)CCOC1 [WO2022109580, Example 14] | 8.40
9 | CO[C@@]1(c2cc(C)cc(-n3cc(C)c4cnc(NC(N)=O)cc43)n2)CCOC1 [WO2022109580, Example 17] | 8.40
10 | CO[C@]1(c2cc(C)cc(-n3cc(C)c4cnc(NC(N)=O)cc43)n2)CCOC1 [WO2022109580, Example 18] | 8.10
11 | CO[C@@]1(c2cc(OCC3COC3)cc(-n3cc(C)c4cnc(NC(N)=O)cc43)n2)CCOC1 [WO2022109580, Example 19] | 8.70
12 | CO[C@]1(c2cc(OCC3COC3)cc(-n3cc(C)c4cnc(NC(N)=O)cc43)n2)CCOC1 [WO2022109580, Example 20] | 7.96
13 | CO[C@]1(c2cc(OCC3CS(=O)(=O)C3)cc(-n3cc(C)c4cnc(NC(N)=O)cc43)n2)CCOC1 [WO2022109580, Example 22] | 7.85

More lines, in order of rising pIC50, values ahead:

Row | pIC50 | Structure (SMILES)
14 | 7.38 | CO[C@]1(c2cc(C)cc(-c3cc(-c4cnn(C)c4)n4cnc(NC(N)=O)cc34)n2)CCOC1 [WO2022109580, Example 24]
15 | 8.15 | CO[C@]1(c2cc(OCC3CS(=O)(=O)C3)cc(-n3nc(C)c4cnc(NC(N)=O)cc43)n2)CCOC1 [WO2022109580, Example 16]
16 | 8.22 | COCCOc1cc(-n2nc(C)c3cnc(NC(N)=O)cc32)nc([C@@]2(OC)CCOC2)c1 [WO2022109580, Example 10]
17 | 8.30 | CO[C@@]1(c2cc(C)cc(N3C=C(c4cnn(C)c4)N4C=NC(NC(N)=O)=CC43)n2)CCOC1 (stereo partly specified) [WO2022109580, Example 23]
18 | 8.52 | CO[C@@]1(c2cc(C)cc(-n3nc(C)c4cnc(NC(N)=O)cc43)n2)CCOC1 [WO2022109580, Example 5]
19 | 8.70 | CO[C@@]1(c2cc(OC[C@@H](C)O)cc(-n3nc(C)c4cnc(NC(N)=O)cc43)n2)CCOC1 [WO2022109580, Example 11]
20 | 8.70 | CO[C@@]1(c2cc(OCC3COC3)cc(-n3nc(C)c4cnc(NC(N)=O)cc43)n2)CCOC1 [WO2022109580, Example 13]
21 | 8.70 | CO[C@]1(c2cc(C)cc(-c3cc(C)n4cnc(NC(N)=O)cc34)n2)CCOC1 [WO2022109580, Example 25]
